Measurements reported in the kinase profiling compilation of Christmann-Franck et al. (2016).

Experiments:
Test in all cases: KINOMEscan competition binding
[1] = molecular target: MARK4 (human) (UniProt Q96L34); conditions: compound 1.0 µM
[2] = molecular target: FGFR3 (human) (UniProt P22607); conditions: compound 1.0 µM
[3] = tested on: ABL1 (human), P00519 [E255K]; conditions: compound 1.0 µM
[4] = molecular target: CSNK1G2 (human) (UniProt P78368); conditions: compound 1.0 µM
[5] = tested on: EGFR (human), P00533 [752-759 del]; conditions: compound 1.0 µM
[6] = tested on: EGFR (human), P00533 [T790M]; conditions: compound 1.0 µM
[7] = molecular target: CAMK1G (human) (UniProt Q96NX5); conditions: compound 1.0 µM
[8] = molecular target: LCK (human) (UniProt P06239); conditions: compound 1.0 µM
[9] = molecular target: TAOK2 (human) (UniProt Q9UL54); conditions: compound 1.0 µM
[10] = molecular target: MAP3K6 (human) (UniProt O95382); conditions: compound 1.0 µM
[11] = tested on: EIF2AK4 KD2 (human), Q9P2K8 [S808G]; conditions: compound 1.0 µM
[12] = molecular target: RET (human) (UniProt P07949); conditions: compound 1.0 µM
[13] = molecular target: CDC42BPG (human) (UniProt Q6DT37)
[14] = molecular target: SGK3 (human) (UniProt Q96BR1); conditions: compound 1.0 µM
[15] = molecular target: EPHA2 (human) (UniProt P29317); conditions: compound 1.0 µM
[16] = molecular target: CDC42BPB (human) (UniProt Q9Y5S2); conditions: compound 1.0 µM
[17] = molecular target: CLK4 (human) (UniProt Q9HAZ1); conditions: compound 1.0 µM
[18] = molecular target: RPS6KA5 KD1 (human) (UniProt O75582); conditions: compound 1.0 µM
[19] = molecular target: BMPR1B (human) (UniProt O00238); conditions: compound 1.0 µM
[20] = tested on: FLT3 (human), P36888 [K663Q]; conditions: compound 1.0 µM
[21] = tested on: PIK3CA (human), P42336 [C420R]; conditions: compound 1.0 µM
[22] = molecular target: BRSK2 (human) (UniProt Q8IWQ3); conditions: compound 1.0 µM
[23] = molecular target: ADCK3 (human) (UniProt Q8NI60); conditions: compound 1.0 µM
[24] = molecular target: MAP2K5 (human) (UniProt Q13163); conditions: compound 1.0 µM
[25] = molecular target: CDK11B (human) (UniProt P21127); conditions: compound 1.0 µM
[26] = molecular target: MARK2 (human) (UniProt Q7KZI7); conditions: compound 1.0 µM
[27] = molecular target: PRPF4B (human) (UniProt Q13523); conditions: compound 1.0 µM
[28] = molecular target: RPS6KA4 KD2 (human) (UniProt O75676); conditions: compound 1.0 µM
[29] = tested on: FLT3 (human), P36888 [N841I]; conditions: compound 1.0 µM
[30] = molecular target: MAPKAPK5 (human) (UniProt Q8IW41); conditions: compound 1.0 µM
[31] = molecular target: HUNK (human) (UniProt P57058); conditions: compound 1.0 µM
[32] = molecular target: MAPK9 (human) (UniProt P45984); conditions: compound 1.0 µM
[33] = molecular target: CDKL2 (human) (UniProt Q92772); conditions: compound 1.0 µM
[34] = tested on: EGFR (human), P00533 [P753S; 747-752 del]; conditions: compound 1.0 µM
[35] = molecular target: CDK18 (human) (UniProt Q07002); conditions: compound 1.0 µM
[36] = molecular target: MAK (human) (UniProt P20794); conditions: compound 1.0 µM
[37] = molecular target: PI4KB (human) (UniProt Q9UBF8); conditions: compound 1.0 µM
[38] = molecular target: MAP4K3 (human) (UniProt Q8IVH8); conditions: compound 1.0 µM
[39] = molecular target: MAP2K4 (human) (UniProt P45985); conditions: compound 1.0 µM
[40] = molecular target: PKMYT1 (human) (UniProt Q99640); conditions: compound 1.0 µM
[41] = molecular target: MAP4K1 (human) (UniProt Q92918); conditions: compound 1.0 µM
[42] = molecular target: INSR (human) (UniProt P06213); conditions: compound 1.0 µM

Chain of CDC42BPG (human) (Q6DT37 whole entry, looked up): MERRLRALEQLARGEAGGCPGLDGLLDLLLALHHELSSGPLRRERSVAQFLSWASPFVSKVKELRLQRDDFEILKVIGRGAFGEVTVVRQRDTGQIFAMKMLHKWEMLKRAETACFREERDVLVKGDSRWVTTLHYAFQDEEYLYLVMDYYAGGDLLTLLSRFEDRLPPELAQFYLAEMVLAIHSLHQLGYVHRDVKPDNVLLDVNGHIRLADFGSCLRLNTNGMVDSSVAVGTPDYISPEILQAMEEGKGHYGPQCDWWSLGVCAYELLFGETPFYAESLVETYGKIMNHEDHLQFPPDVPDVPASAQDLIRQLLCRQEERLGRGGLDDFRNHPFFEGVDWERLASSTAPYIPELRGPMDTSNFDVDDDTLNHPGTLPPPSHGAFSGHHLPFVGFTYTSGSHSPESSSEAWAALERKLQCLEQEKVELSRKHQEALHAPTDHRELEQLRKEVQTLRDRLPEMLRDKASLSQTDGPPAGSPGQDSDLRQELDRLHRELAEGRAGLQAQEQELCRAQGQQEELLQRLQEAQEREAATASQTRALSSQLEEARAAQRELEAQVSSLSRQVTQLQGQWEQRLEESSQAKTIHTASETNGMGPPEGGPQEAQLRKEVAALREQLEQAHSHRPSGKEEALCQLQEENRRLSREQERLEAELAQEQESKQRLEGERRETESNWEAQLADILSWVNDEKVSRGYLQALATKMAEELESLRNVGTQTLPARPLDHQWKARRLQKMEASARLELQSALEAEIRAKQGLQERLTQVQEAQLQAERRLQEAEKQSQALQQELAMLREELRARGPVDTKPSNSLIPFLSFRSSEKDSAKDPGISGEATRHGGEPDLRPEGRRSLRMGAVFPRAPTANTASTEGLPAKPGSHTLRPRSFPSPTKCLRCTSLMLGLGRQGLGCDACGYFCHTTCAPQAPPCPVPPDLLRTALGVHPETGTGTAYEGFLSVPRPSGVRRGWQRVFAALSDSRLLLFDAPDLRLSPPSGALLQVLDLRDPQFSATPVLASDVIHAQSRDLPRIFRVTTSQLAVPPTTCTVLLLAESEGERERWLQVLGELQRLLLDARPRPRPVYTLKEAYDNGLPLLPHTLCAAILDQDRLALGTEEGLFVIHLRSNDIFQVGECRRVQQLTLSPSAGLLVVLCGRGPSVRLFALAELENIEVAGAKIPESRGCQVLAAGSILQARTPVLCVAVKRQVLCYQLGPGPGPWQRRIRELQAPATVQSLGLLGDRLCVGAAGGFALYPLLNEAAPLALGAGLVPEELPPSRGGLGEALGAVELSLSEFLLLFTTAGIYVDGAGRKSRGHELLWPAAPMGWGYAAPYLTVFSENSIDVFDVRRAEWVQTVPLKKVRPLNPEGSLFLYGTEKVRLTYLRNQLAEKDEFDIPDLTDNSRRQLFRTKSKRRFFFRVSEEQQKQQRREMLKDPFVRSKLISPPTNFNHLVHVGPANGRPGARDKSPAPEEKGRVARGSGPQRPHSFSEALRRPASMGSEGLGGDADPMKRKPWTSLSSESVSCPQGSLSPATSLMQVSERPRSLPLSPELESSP
Chain of CDC42BPB (human) (Q9Y5S2 whole entry, looked up): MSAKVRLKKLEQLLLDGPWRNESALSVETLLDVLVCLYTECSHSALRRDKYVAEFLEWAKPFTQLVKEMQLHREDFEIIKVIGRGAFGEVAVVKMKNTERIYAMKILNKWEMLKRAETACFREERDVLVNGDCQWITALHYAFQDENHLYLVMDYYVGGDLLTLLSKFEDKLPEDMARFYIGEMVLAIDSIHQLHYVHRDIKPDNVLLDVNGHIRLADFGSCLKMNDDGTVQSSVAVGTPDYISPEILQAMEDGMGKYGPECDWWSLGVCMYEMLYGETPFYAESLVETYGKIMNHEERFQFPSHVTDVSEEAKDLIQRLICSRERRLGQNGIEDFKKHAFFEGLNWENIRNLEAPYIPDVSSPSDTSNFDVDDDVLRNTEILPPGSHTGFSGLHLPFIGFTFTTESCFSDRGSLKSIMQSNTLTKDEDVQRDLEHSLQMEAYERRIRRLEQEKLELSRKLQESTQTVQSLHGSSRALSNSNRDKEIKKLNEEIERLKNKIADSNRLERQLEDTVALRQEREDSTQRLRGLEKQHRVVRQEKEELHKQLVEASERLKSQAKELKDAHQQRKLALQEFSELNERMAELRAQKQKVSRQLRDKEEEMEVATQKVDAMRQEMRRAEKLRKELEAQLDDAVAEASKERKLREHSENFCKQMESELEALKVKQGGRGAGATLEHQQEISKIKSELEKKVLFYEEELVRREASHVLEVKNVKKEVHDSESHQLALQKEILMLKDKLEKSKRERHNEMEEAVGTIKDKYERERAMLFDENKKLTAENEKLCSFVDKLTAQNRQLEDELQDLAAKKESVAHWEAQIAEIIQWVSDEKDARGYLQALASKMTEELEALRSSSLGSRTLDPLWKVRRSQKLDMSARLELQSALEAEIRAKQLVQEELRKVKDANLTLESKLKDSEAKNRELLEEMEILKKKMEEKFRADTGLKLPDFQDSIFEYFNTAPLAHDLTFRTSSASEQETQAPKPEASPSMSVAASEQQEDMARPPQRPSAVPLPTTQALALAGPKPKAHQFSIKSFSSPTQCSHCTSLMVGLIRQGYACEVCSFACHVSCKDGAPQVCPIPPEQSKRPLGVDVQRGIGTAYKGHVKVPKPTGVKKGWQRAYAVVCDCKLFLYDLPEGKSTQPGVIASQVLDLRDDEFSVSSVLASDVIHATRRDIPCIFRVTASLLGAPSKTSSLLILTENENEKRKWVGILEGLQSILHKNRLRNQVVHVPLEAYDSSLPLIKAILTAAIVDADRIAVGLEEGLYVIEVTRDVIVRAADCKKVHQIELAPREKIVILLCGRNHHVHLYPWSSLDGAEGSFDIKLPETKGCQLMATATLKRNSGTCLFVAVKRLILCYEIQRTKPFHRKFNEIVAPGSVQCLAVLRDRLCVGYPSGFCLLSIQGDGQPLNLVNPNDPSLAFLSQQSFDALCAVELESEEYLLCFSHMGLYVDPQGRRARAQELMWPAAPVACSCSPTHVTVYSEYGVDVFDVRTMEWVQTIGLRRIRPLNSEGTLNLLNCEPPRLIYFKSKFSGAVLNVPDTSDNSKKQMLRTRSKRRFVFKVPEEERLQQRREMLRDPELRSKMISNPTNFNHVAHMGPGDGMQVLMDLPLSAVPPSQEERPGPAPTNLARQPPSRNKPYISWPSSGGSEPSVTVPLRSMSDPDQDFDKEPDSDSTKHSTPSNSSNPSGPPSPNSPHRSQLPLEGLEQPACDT
Chain of PIK3CA (human), P42336 [C420R] (P42336 whole entry C420R, looked up): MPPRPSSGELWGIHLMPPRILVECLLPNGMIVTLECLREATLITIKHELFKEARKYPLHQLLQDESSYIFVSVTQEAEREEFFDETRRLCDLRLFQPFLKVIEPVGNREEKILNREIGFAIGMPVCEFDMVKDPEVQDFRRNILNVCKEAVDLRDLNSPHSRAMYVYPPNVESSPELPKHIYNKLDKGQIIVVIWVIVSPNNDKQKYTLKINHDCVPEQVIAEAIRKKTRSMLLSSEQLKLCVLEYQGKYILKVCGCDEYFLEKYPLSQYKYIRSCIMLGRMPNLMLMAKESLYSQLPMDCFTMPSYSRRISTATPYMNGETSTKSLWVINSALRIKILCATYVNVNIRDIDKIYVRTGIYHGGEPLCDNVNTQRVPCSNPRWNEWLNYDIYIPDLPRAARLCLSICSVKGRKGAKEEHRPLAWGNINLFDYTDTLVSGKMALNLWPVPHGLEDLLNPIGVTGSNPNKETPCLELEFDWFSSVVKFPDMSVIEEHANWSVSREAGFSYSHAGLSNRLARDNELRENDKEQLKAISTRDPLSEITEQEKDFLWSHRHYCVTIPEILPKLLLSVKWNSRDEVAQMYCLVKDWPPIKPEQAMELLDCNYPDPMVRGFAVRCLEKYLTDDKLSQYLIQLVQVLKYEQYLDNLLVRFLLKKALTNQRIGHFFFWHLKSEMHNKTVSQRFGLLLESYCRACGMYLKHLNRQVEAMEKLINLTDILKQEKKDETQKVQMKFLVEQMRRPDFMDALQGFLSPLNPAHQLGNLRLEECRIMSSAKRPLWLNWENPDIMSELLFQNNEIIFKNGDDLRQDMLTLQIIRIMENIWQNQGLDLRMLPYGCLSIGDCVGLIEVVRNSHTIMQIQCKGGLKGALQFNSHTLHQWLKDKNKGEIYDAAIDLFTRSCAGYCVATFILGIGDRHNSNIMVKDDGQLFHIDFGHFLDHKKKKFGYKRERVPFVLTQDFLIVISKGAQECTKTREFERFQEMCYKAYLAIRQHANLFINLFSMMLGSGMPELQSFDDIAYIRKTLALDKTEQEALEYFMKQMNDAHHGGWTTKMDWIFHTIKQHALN
Chain of PKMYT1 (human) (Q99640 whole entry, looked up): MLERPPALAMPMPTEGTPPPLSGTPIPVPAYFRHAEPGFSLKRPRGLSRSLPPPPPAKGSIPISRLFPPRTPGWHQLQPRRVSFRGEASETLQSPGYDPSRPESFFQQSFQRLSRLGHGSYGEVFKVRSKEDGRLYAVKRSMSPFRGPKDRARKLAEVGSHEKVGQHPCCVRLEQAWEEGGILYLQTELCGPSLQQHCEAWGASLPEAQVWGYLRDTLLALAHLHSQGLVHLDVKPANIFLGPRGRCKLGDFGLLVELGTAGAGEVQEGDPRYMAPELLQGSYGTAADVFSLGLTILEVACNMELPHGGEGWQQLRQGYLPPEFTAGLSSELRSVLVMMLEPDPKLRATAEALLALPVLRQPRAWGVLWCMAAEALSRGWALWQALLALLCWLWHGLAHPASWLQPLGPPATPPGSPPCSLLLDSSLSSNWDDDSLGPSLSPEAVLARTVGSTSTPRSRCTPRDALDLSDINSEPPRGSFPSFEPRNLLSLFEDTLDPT

CN(C)C/C=C/C(=O)Nc1cccc(C(=O)Nc2ccc(Nc3nccc(-c4c(-c5ccccc5)nn5ccccc45)n3)cc2)c1
kinase still bound, per cent of control [1]: 100% | kinase still bound, per cent of control [2]: 100% | kinase still bound, per cent of control [3]: 12% | kinase still bound, per cent of control [4]: 0.85% | kinase still bound, per cent of control [5]: 7.8% | kinase still bound, per cent of control [6]: 11% | kinase still bound, per cent of control [7]: 94% | kinase still bound, per cent of control [8]: 8.6% | kinase still bound, per cent of control [9]: 31% | kinase still bound, per cent of control [10]: 100% | kinase still bound, per cent of control [11]: 76% | kinase still bound, per cent of control [12]: 8.3% | Kd [13]: 0.018 µM | kinase still bound, per cent of control ([13]; compound 1.0 µM): 0.25% | kinase still bound, per cent of control [14]: 91% | kinase still bound, per cent of control [15]: 76% | kinase still bound, per cent of control [16]: 16% | kinase still bound, per cent of control [17]: 100% | kinase still bound, per cent of control [18]: 100% | kinase still bound, per cent of control [19]: 47% | kinase still bound, per cent of control [20]: 12% | kinase still bound, per cent of control [21]: 100% | kinase still bound, per cent of control [22]: 100% | kinase still bound, per cent of control [23]: 0% | kinase still bound, per cent of control [24]: 23% | kinase still bound, per cent of control [25]: 43% | kinase still bound, per cent of control [26]: 98% | kinase still bound, per cent of control [27]: 100% | kinase still bound, per cent of control [28]: 91% | kinase still bound, per cent of control [29]: 4% | kinase still bound, per cent of control [30]: 100% | kinase still bound, per cent of control [31]: 67% | kinase still bound, per cent of control [32]: 0% | kinase still bound, per cent of control [33]: 74% | kinase still bound, per cent of control [34]: 7% | kinase still bound, per cent of control [35]: 95% | kinase still bound, per cent of control [36]: 100% | kinase still bound, per cent of control [37]: 69% | kinase still bound, per cent of control [38]: 59% | kinase still bound, per cent of control [39]: 100% | kinase still bound, per cent of control [40]: 100% | kinase still bound, per cent of control [41]: 69% | kinase still bound, per cent of control [42]: 100%
